One assay deals with HA-KANK1. The experiment in a line: Streptavidin pull down of BioGFP-talin1 constructs with HA-KANK1, Western blot. It is filed as binding. The note with it: HEK293T cells. From the text: BioGFP-tagged KANK1 mutants were constructed using PCR and pBioGFP-C1 vector as previously described ([van der Vaart et al., 2013]). Rescue constructs for BioGFP-tagged KANK1 were either based on the version previously described ([van der Vaart et al., 2013]) or a version obtained by PCR-based mutagenesis of the sequence […] to […]. mCherry-tagged paxillin construct was made by replacing GFP from pQC-GPXN ([Bouchet et al., 2011]) by mCherry (pmCherry-C1, Clontech). TagRFP-tagged paxillin construct was made by PCR-based amplification and cloning in pTagRFP-T-C1 (kind gift from Y. Mimori-Kiyosue, Riken Institute, Japan). HA-tagged KANK1 construct was generated by cloning KANK1 coding sequence into pMT2-SM-HA (gift of C. Hoogenraad, Utrecht University, The Netherlands). pLVX-IRES-Neo (pLVIN) vectors was constructed by cloning the IRES-neomycin resistance cassette from the pQCXIN plasmid (Clontech) into the pLVX-IRES-Puro plasmid (Clontech). […]
Streptavidin-based pull down assays of biotinylated proteins expressed using pBioGFP-C1 constructs transfected in HEK293T cells was performed and analyzed as previously described ([van der Vaart et al., 2013]). […] For RP-nanoLC-MS/MS, samples were resuspended in 10% formic acid (FA) / 5% DMSO and was analyzed using a Proxeon Easy-nLC100 (Thermo Scientific) connected to an Orbitrap Q-Exactive mass spectrometer. […]

Assay [1] deals with microtubule plus ends in HeLa cells. The experiment in a line: Angles of microtubule growth relative to the cell margin. It is filed as cell-based, human. Conditions: talin1/2-depleted HeLa. The protocol: nEB3-mRFP dynamics was recorded by 0.5 s interval time lapse TIRF imaging. Microtubule growth was measured using kymographs obtained from EB3-mRFP time lapse image series, plotted and presented as previously described ([van der Vaart et al., 2013]). Ratio of microtubule growth in cell center to periphery was obtained as values for individual cells. Microtubule growth trajectory angle to the cell edge was manually measured in ImageJ using tracks obtained by maximum intensity projection of EB3-mRFP image series.

As for “GFP-talin1-G1404L: GFP-tagged mouse talin1 with single point mutation G1404L”, the “interaction of talin1 constructs with KANK1 (in words)” value in the assay on HA-KANK1 is recorded as “abrogated the interaction of full-length talin1 or its R7 fragment with full-length KANK1”. In addition, the “proportion of microtubules growing parallel to the cell edge (in words)” value in assay [1] is “greatly increased”.

Values taken from PMC4995097, “Talin-KANK1 interaction controls the recruitment of cortical microtubule stabilizing complexes to focal adhesions” (eLife, 2016).
